# Data: patent publication US20180296456A1, “Decapeptide-12 Modulation of Sirtuin Gene Expression in Epidermal Keratinocyte Progenitors” (Escape Therapeutics, Inc., priority 2017, published 2018)
# Where “and” joins values, the source holds several entries; their conditions need not be identical. Equal entries are not always repeated. Ends that are not written are not given here.
# Tests used:
# SIRT1 = SIRT1 transcription, semi-quantitative RT-PCR in human epidermal progenitors; type: cell-based; conditions: 72 h
# How it was run: (§1)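 Epidermal progenitors (human, neonatal); Epilife + 60 μM CaCl2; 37 °C/5 percent CO2. Decapeptide 10, 30, 50, 100, 300 μM × 72 h, 0.05 percent DMSO final. Oligo-dT cDNA from 2 μg RNA; PCR 34 cycles, 54 °C extension; ethidium gel, ratio to 18S.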
# SIRT2 = SIRT2 transcription, semi-quantitative RT-PCR in human epidermal progenitors; type: cell-based; conditions: 72 h
# How it was run: as §1
# SIRT3 = SIRT3 transcription, semi-quantitative RT-PCR in human epidermal progenitors; type: cell-based; conditions: 72 h
# How it was run: as §1
# SIRT4 = SIRT4 transcription, semi-quantitative RT-PCR in human epidermal progenitors; type: cell-based; conditions: 72 h
# SIRT6 = SIRT6 transcription, semi-quantitative RT-PCR in human epidermal progenitors; type: cell-based; conditions: 72 h
# How it was run: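 Following a 72 hour treatment, cells were trypsinized and RNA isolated with an RNeasy kit. cDNA was made from 2 μg RNA using oligo dT and TaqMan reagents, then SIRT6 and 18S were amplified for 34 cycles. Products ran on 1.5 percent agarose gels with ethidium bromide; densitometry gave SIRT6/18S intensity ratios compared against vehicle-treated controls.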
# in vitro = type: cell-based; conditions: human, human epidermal progenitors
# How it was run: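 Epidermal progenitors were seeded at 2.5×10^4/well and kept at 37 °C in 5% CO2. Proliferation was measured by MTT.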
# [1] = MTT cell proliferation assay, melanoblasts; type: cell-based, human; conditions: human, MTT, 72 h, read-out: melanoblast proliferation rate after 72 hours
# Protocol: Proliferation rates for three human cell lines (epidermal progenitors, melanoblasts, and fibroblasts) were determined using a TACS® MTT Cell Proliferation Kit. Cells were seeded at 2.5×10^4/well in 96-well plates in a humidified atmosphere with 5 percent CO2 at 37 degrees Celsius. Twenty-four hours later, the decapeptides were added to the corresponding wells at varying concentrations and incubated for 72 hours. The remainder of the procedure was performed following the manufacturer's protocol.
# [2] = Trypan blue cell viability, 7 days, epidermal progenitors; type: cell-based; conditions: human, relative to control, read-out: epidermal progenitor viability after 7 days
# Protocol: (§2) The effect of each of the decapeptides upon cell viability was also tested. In particular, cells were incubated with the decapeptide at various concentrations and then counted for viability relative to the control (untreated cells) using trypan blue. Cytotoxicity was measured according to the following formula:
# (§3) [1−(# of cells in control−# of live cells in test sample)/# of cells in control]×100 percent.
# [3] = Trypan blue cell viability, 7 days, melanoblasts; type: cell-based; conditions: human, relative to control, read-out: melanoblast viability after 7 days
# Protocol: as §2, §3
sequence,measurement,setting,value
"YRSRKYSSWY [decapeptide-12, YRSRKYSSWY]",SIRT1 transcription increase relative to control,SIRT1; 3 μM,3 ± 1%
same,SIRT1 transcription increase relative to control,SIRT1; 10 μM,12.2 ± 3.1%^
same,SIRT1 transcription increase relative to control,"SIRT1; 10 μM, listed as P4",12 ± 3%
same,SIRT1 transcription increase relative to control,SIRT1; 30 μM,34 ± 6.7%
same,SIRT1 transcription increase relative to control,"SIRT1; 30 μM, listed as P4",34 ± 7%
same,SIRT1 transcription increase relative to control,SIRT1; 50 μM,79.2 ± 12%
same,SIRT1 transcription increase relative to control,"SIRT1; 50 μM, listed as P4",79 ± 12%
same,SIRT1 transcription increase relative to control,SIRT1; 100 μM,141±11% and 141%
same,SIRT1 transcription increase relative to control,"SIRT1; 100 μM, listed as Deca",141.2 ± 11%
same,SIRT1 transcription increase relative to control,"SIRT1; 100 μM, listed as P4",141 ± 11%
same,SIRT1 transcription increase relative to control,SIRT1; 300 μM,188 ± 12%^
same,SIRT1 transcription increase relative to control,"SIRT1; 300 μM, listed as P4",188 ± 12%
same,SIRT1 transcription increase relative to control,SIRT1; 500 μM,205 ± 13.3%
same,SIRT1 transcription increase relative to control,SIRT1; 1000 μM,213%
same,SIRT1 transcription increase relative to control,"SIRT1; 1000 μM, listed as Deca",213 ± 13.4%
same,SIRT2 transcription increase relative to control,SIRT2; 3 μM,1 ± 1%
same,SIRT2 transcription increase relative to control,SIRT2; 10 μM,4.1 ± 3%
same,SIRT2 transcription increase relative to control,"SIRT2; 10 μM, listed as P4",4 ± 3%
same,SIRT2 transcription increase relative to control,SIRT2; 30 μM,11.2 ± 3.7%
same,SIRT2 transcription increase relative to control,"SIRT2; 30 μM, listed as P4",11 ± 4%
same,SIRT2 transcription increase relative to control,SIRT2; 50 μM,21.5 ± 4.9%
same,SIRT2 transcription increase relative to control,"SIRT2; 50 μM, listed as P4",22 ± 5%
same,SIRT2 transcription increase relative to control,"SIRT2; 100 μM, listed as Deca",35.4 ± 5.5%
same,SIRT2 transcription increase relative to control,"SIRT2; 100 μM, listed as P4",35 ± 5%
same,SIRT2 transcription increase relative to control,SIRT2; 300 μM,61.1± 6.8%
same,SIRT2 transcription increase relative to control,"SIRT2; 300 μM, listed as P4",61 ± 7%
same,SIRT2 transcription increase relative to control,SIRT2; 500 μM,76 ± 6.1%
same,SIRT2 transcription increase relative to control,SIRT2; 1000 μM,76 ± 7.1%
same,SIRT3 transcription increase relative to control,SIRT3; 3 μM,4 ± 1%
same,SIRT3 transcription increase relative to control,SIRT3; 10 μM,9.2 ± 2.8%
same,SIRT3 transcription increase relative to control,"SIRT3; 10 μM, listed as P4",9 ± 3%
same,SIRT3 transcription increase relative to control,SIRT3; 30 μM,32.2 ± 6.1%
same,SIRT3 transcription increase relative to control,"SIRT3; 30 μM, listed as P4",32 ± 6%
same,SIRT3 transcription increase relative to control,SIRT3; 50 μM,65 ± 12.1%
same,SIRT3 transcription increase relative to control,"SIRT3; 50 μM, listed as P4",65 ± 12%
same,SIRT3 transcription increase relative to control,SIRT3; 100 μM,121±13%
same,SIRT3 transcription increase relative to control,"SIRT3; 100 μM, listed as Deca",121 ± 13.2%
same,SIRT3 transcription increase relative to control,"SIRT3; 100 μM, listed as P4",121 ± 13%
same,SIRT3 transcription increase relative to control,"SIRT3; 100 μM, listed as decapeptide",121%
same,SIRT3 transcription increase relative to control,SIRT3; 300 μM,165.2 ± 12.4%
same,SIRT3 transcription increase relative to control,"SIRT3; 300 μM, listed as P4",165 ± 12%
same,SIRT3 transcription increase relative to control,SIRT3; 500 μM,177 ± 9.2%
same,SIRT3 transcription increase relative to control,SIRT3; 1000 μM,171 ± 9%
same,SIRT4 transcription increase relative to control,SIRT4; 3 μM,3 ± 1%
same,SIRT4 transcription increase relative to control,SIRT4; 10 μM,8.1 ± 4%^
same,SIRT4 transcription increase relative to control,"SIRT4; 10 μM, listed as P4",8 ± 3%
same,SIRT4 transcription increase relative to control,SIRT4; 30 μM,12.1 ± 7%
same,SIRT4 transcription increase relative to control,"SIRT4; 30 μM, listed as P4",12 ± 7%
same,SIRT4 transcription increase relative to control,SIRT4; 50 μM,41.2 ± 13.1%
same,SIRT4 transcription increase relative to control,"SIRT4; 50 μM, listed as P4",41 ± 13%
same,SIRT4 transcription increase relative to control,"SIRT4; 100 μM, listed as Deca",71.4 ± 14.1%
same,SIRT4 transcription increase relative to control,"SIRT4; 100 μM, listed as P4",71 ± 14%
same,SIRT4 transcription increase relative to control,SIRT4; 300 μM,115 ± 11.7%
same,SIRT4 transcription increase relative to control,"SIRT4; 300 μM, listed as P4",115 ± 12%
same,SIRT4 transcription increase relative to control,SIRT4; 500 μM,145 ± 12.7%
same,SIRT4 transcription increase relative to control,SIRT4; 1000 μM,151 ± 13.4%
same,SIRT6 transcription increase relative to control,SIRT6; 3 μM,3 ± 1%
same,SIRT6 transcription increase relative to control,SIRT6; 10 μM,21.3 ± 8.1%
same,SIRT6 transcription increase relative to control,"SIRT6; 10 μM, listed as P4",21 ± 8%
same,SIRT6 transcription increase relative to control,SIRT6; 30 μM,52 ± 5.1%
same,SIRT6 transcription increase relative to control,"SIRT6; 30 μM, listed as P4",52 ± 5%
same,SIRT6 transcription increase relative to control,SIRT6; 50 μM,95.4 ± 13.4%
same,SIRT6 transcription increase relative to control,"SIRT6; 50 μM, listed as P4",95 ± 13%
same,SIRT6 transcription increase relative to control,SIRT6; 100 μM,147±8% and 147%
same,SIRT6 transcription increase relative to control,"SIRT6; 100 μM, listed as Deca",147 ± 8.4%
same,SIRT6 transcription increase relative to control,"SIRT6; 100 μM, listed as P4",147 ± 8%
same,SIRT6 transcription increase relative to control,SIRT6; 300 μM,189 ± 9.5%
same,SIRT6 transcription increase relative to control,"SIRT6; 300 μM, listed as P4",189 ± 10%
same,SIRT6 transcription increase relative to control,SIRT6; 500 μM,194 ± 14%
same,SIRT6 transcription increase relative to control,SIRT6; 1000 μM,167 ± 12.2%
same,"viability at 72 h, 3 µM",in vitro,100%
same,"viability at 72 h, 10 µM",in vitro,99 ± 1%
same,"viability at 72 h, 30 µM",in vitro,98 ± 1%
same,"viability at 72 h, 50 µM",in vitro,97 ± 1%
same,"viability at 72 h, 100 µM",in vitro,97 ± 1%
same,"viability at 72 h, 300 µM",in vitro,96 ± 1%
same,"viability at 72 h, 500 µM",in vitro,96 ± 2%
same,"viability at 72 h, 1000 µM",in vitro,94 ± 2%
same,"viability at 72 h, 3 µM",[1]; 3 μM,100%
same,"viability at 72 h, 10 µM",[1]; 10 μM,100%
same,"viability at 72 h, 30 µM",[1]; 30 μM,99 ± 1%
same,"viability at 72 h, 50 µM",[1]; 50 μM,98 ± 1%
same,"viability at 72 h, 100 µM",[1]; 100 μM,97 ± 1%
same,"viability at 72 h, 300 µM",[1]; 300 μM,97 ± 1%
same,"viability at 72 h, 500 µM",[1]; 500 μM,95 ± 2%
same,"viability at 72 h, 1000 µM",[1]; 1000 μM,95 ± 2%
same,"viability at 168 h, 3 µM",[2]; 3 μM,100%
same,"viability at 168 h, 10 µM",[2]; 10 μM,99 ± 1%
same,"viability at 168 h, 30 µM",[2]; 30 μM,98.4 ± 1%
same,"viability at 168 h, 50 µM",[2]; 50 μM,97.8 ± 1%
same,"viability at 168 h, 100 µM",[2]; 100 μM,97.1 ± 1%
same,"viability at 168 h, 300 µM",[2]; 300 μM,95.6 ± 2%
same,"viability at 168 h, 500 µM",[2]; 500 μM,94.2 ± 2%
same,"viability at 168 h, 1000 µM",[2]; 1000 μM,93.8 ± 2%
same,"viability at 168 h, 3 µM",[3]; 3 μM,100%
same,"viability at 168 h, 10 µM",[3]; 10 μM,99 ± 1%
same,"viability at 168 h, 30 µM",[3]; 30 μM,98.3 ± 1%
same,"viability at 168 h, 50 µM",[3]; 50 μM,98 ± 1%
same,"viability at 168 h, 100 µM",[3]; 100 μM,97.3 ± 1%
same,"viability at 168 h, 300 µM",[3]; 300 μM,95.2 ± 2%
same,"viability at 168 h, 500 µM",[3]; 500 μM,94.6 ± 2%
same,"viability at 168 h, 1000 µM",[3]; 1000 μM,94 ± 2%
